Results as given in PubChem BioAssay AID328 (DTP/NCI, 2004).
Where “and” joins values, the source holds several entries; their conditions need not be identical. Identical values can stand only once. Inconclusive results and toxic doses are left out. How the source made its calls: active means survival T/C of 150% or more; inactive means T/C below 125% in these data.

Tested on: BDF1 mice, P388 leukemia ip, median survival T/C
Experiment: NCI In Vivo Anticancer Drug Screen. Data for tumor model P388 Leukemia (intraperitoneal) in B6D2F1 (BDF1) mice
Settings: endpoint: median survival time, higher = longer survival
Outline: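 Read-out is survival of treated animals expressed relative to the vehicle group, as a T/C ratio.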

[1] = dose: 50.0 mg/kg/injection, schedule: Q01DX009 (ip), vehicle: saline
[2] = dose: 50.0 mg/kg/injection, schedule: Q04DX003 (ip), vehicle: saline
[3] = dose: 100.0 mg/kg/injection, schedule: Q01DX009 (ip), vehicle: saline
[4] = dose: 100.0 mg/kg/injection, schedule: Q04DX003 (ip), vehicle: saline
[5] = dose: 200.0 mg/kg/injection, schedule: Q01DX009 (ip), vehicle: saline
[6] = dose: 200.0 mg/kg/injection, schedule: Q04DX003 (ip), vehicle: saline

Measured: T/C

N#CCNC(=O)c1ccccc1
inactive: dose: 6.0 mg/kg/injection, schedule: Q01DX009 (ip), vehicle: Klucel (hydroxypropylcellulose) (HPC) 88 % of control | dose: 12.0 mg/kg/injection, schedule: Q01DX009 (ip), vehicle: Klucel (hydroxypropylcellulose) (HPC) 88 % of control | dose: 25.0 mg/kg/injection, schedule: Q01DX009 (ip), vehicle: Klucel (hydroxypropylcellulose) (HPC) 91 % of control | dose: 25.0 mg/kg/injection, schedule: Q04DX003 (ip), vehicle: Klucel (hydroxypropylcellulose) (HPC) 110 % of control | dose: 50.0 mg/kg/injection, schedule: Q04DX003 (ip), vehicle: Klucel (hydroxypropylcellulose) (HPC) 110 % of control | dose: 100.0 mg/kg/injection, schedule: Q04DX003 (ip), vehicle: Klucel (hydroxypropylcellulose) (HPC) 90 % of control

CCOC(=O)c1cnc2c(OC)cccc2c1Cl
inactive: dose: 4.0 mg/kg/injection, schedule: Q01DX009 (ip), vehicle: saline 86 % of control | dose: 8.0 mg/kg/injection, schedule: Q01DX009 (ip), vehicle: saline 91 % of control | dose: 16.0 mg/kg/injection, schedule: Q01DX009 (ip), vehicle: saline 106 % of control | dose: 25.0 mg/kg/injection, schedule: Q01DX009 (ip), vehicle: saline 120 % of control | [1] 113 % of control | [2] 96 % of control | [3] 111 % of control | [4] 96 % of control | [5] 113 % of control | [6] 97 % of control | dose: 400.0 mg/kg/injection, schedule: Q01DX009 (ip), vehicle: saline 113 % of control | dose: 400.0 mg/kg/injection, schedule: Q04DX003 (ip), vehicle: saline 90 % of control

COC(=O)C(C(=O)OC)=C1CS(=O)(=O)C1
inactive: dose: 100.0 mg/kg/injection, schedule: Q04DX002 (ip), vehicle: saline with Tween-80 94 % of control | dose: 200.0 mg/kg/injection, schedule: Q04DX002 (ip), vehicle: saline with Tween-80 101 % of control | dose: 400.0 mg/kg/injection, schedule: Q04DX002 (ip), vehicle: saline with Tween-80 102 % of control

NC(=S)N/N=C/c1ncccc1F
inactive: dose: 25.0 mg/kg/injection, schedule: Q04DX003 (ip), vehicle: saline with Tween-80 110 % of control | dose: 50.0 mg/kg/injection, schedule: Q04DX003 (ip), vehicle: saline with Tween-80 119 % of control

C=CCn1c(=O)n(CC=C)c(=O)n(CC=C)c1=O
inactive: dose: 100.0 mg/kg/injection, schedule: Q04DX003 (ip), vehicle: alcohol 100 % of control | dose: 200.0 mg/kg/injection, schedule: Q04DX003 (ip), vehicle: alcohol 104 % of control | dose: 400.0 mg/kg/injection, schedule: Q04DX003 (ip), vehicle: alcohol 109 % of control

CN(C)c1ccc(C2OC3(CCCCC3)C[N+]23CCCC3)cc1 (configuration not stated)
inactive: dose: 18.0 mg/kg/injection, schedule: Q01DX009 (ip), vehicle: saline 110 % of control | dose: 25.0 mg/kg/injection, schedule: Q04DX003 (ip), vehicle: saline 95 % of control | dose: 28.0 mg/kg/injection, schedule: Q01DX009 (ip), vehicle: saline 105 % of control | dose: 40.0 mg/kg/injection, schedule: Q01DX009 (ip), vehicle: saline 94 % of control | [2] 100 % of control | dose: 75.0 mg/kg/injection, schedule: Q01DX001 (ip), vehicle: Klucel (hydroxypropylcellulose) (HPC) 104 % of control | [4] 90 % of control | dose: 150.0 mg/kg/injection, schedule: Q01DX001 (ip), vehicle: Klucel (hydroxypropylcellulose) (HPC) 100 % of control

CCOC(=O)C(CCCO)C(=O)OCC
inactive: dose: 50.0 mg/kg/injection, schedule: Q01DX001 (ip), vehicle: saline with Tween-80 115 % of control | dose: 100.0 mg/kg/injection, schedule: Q01DX001 (ip), vehicle: saline with Tween-80 100 % of control | dose: 200.0 mg/kg/injection, schedule: Q01DX001 (ip), vehicle: saline with Tween-80 110 % of control

IC12CC3CC(CC(C3)C1)C2
inactive: dose: 100.0 mg/kg/injection, schedule: Q04DX003 (ip), vehicle: saline with Tween-80 90 % of control | dose: 200.0 mg/kg/injection, schedule: Q04DX003 (ip), vehicle: saline with Tween-80 90 % of control | dose: 400.0 mg/kg/injection, schedule: Q04DX003 (ip), vehicle: saline with Tween-80 86 % of control

CCCCCC(C(C)=O)(C1=NC(C)(C)CC(C)O1)c1ccccc1 (configuration not stated)
inactive: [4] 110 % of control | [6] 95 % of control

COc1cc2c3c(c4ccc(O)cc4c2cc1OC)[C@@H](O)[C@@H]1CCCN1C3
inactive: dose: 2.5 mg/kg/injection, schedule: Q01DX009 (ip), vehicle: water 115 % of control | dose: 5.0 mg/kg/injection, schedule: Q01DX009 (ip), vehicle: water 123 % of control

COC(C)C(NC(=O)C1CCCN1C)C1OC(SCCOC(=O)c2ccccc2O)C(O)C(O)C1O (configuration not stated)
inactive: [1] 100 % of control | [3] 100 % of control and 101 % of control (2×) | [5] 104 % of control
